In the experiment the test system is neurons in the mid-posterior insular cortex (mpIC). Briefly: Arc expression in the mpIC of Arc-dVenus reporter mice after oral consumption. The format is in vivo. Particulars: for response of neurons in the mpIC (Arc expression) to oral consumption: Arc-dVenus reporter mice, compared with water. Here is the method:
The expression of Arc was evaluated by immunohistochemical staining for GFP (green) to amplify the signal of dVenus and co-localized with DAPI nuclear staining (blue). Dotted lines are based on Allen Brain Atlas and depict the cytoarchitectonic layers of the insular cortex (granular insula; GI, dysgranular insula; DI, agranular insula; AI) and the claustrum (CI). Scale bar, 200 μm. (1B) A graph showing manual quantification of Arc-positive cells that were identified by GFP and DAPI double-positive staining per region of interest (ROI=[…]) in mice that were exposed to water or OVA. Student's t-test; mean±s.e.m; n=3, 4; **P<0.01. (1C) Maps showing the location of the insular cortex in mice (upper left). Arc-expressing neurons following oral consumption of OVA were found in the mid-posterior region of the insula (upper right) that comprises both gustatory and visceral cortices (lower panel). (1D) A location map and micrographs showing validation of the injection site in the mpIC. Representative image describing the expression of the inhibiting form of designer receptors exclusively activated by designer drugs (DREADDs; Gi) in neurons following stereotactic injection of a viral vector (AAV8-hSyn-hM4Di (Gi)-mCherry), in the GI and DI layers of the mpIC ((0.14-0.18) mm Anterior-Posterior (AP); (3.6-3.8) mm Medial-Lateral (ML); (2.5-2.6) mm Dorsal-Ventral (DV)).
FIGS. 5A-5F include fluorescent micrographs, graphs, and location maps, showing representation of aversive information in the mpIC. […] The expression of Arc was evaluated as described in FIG. 1A. Dotted lines are based on Allen Brain Atlas, and depict the cytoarchitectonic layers of the insular cortex (granular insula; GI, dysgranular insula; DI, agranular insula; AI) and the claustrum (CI). Scale bar, 200 μm. (5B) Manual quantification of Arc-positive cells in the region of interest (ROI=[…]) was performed as described in FIG. 1A in mice that consumed water or denatonium benzoate. Student's t-test; mean±s.e.m; n=3, 5; *P<0.05. (5C) The images show Arc expression in the mpIC of Arc-dVenus reporter mice that were exposed to OVA (left panel) or denatonium benzoate (right panel). The numbers (1-6) represent the layers of the cerebral cortex. Scale bar, 200 μm. (5D) Graphs represent the difference in total Arc expression (left) and the distribution of Arc-positive cells in the 3 cytoarchitectonic layers of the insular cortex (GI, DI, and AI) following exposure of mice to OVA or denatonium benzoate. […] (5F) Graphs depict the total difference in Arc-positive cells in the ⅔ layer of the cerebral cortex (left) of the mpIC and expression of Arc in this layer divided by the insular layers (GI, DI, and AI). Student's t-test; mean±s.e.m; n=3, 5; *P<0.05, **P<0.01.
Thus far, the inventors exposed the mice only to positive appetitive signals, however, whether the mpIC also responds to aversive information that can inform about the presence of pathogens, left unclear. To answer this question the inventors used the Arc reporter mice, except this time they were exposed to the bitter substance denatonium benzoate.

Turning to `CC[N+](CC)(CC(=O)Nc1c(C)cccc1C)Cc1ccccc1` [denatonium benzoate], the “response of neurons in the mpIC (Arc expression) to oral consumption” value was “neurons in the mpIC also respond”. The “Arc-positive cells in the granular layer (GI) of the mpIC” value (denatonium benzoate (bitter) compared to OVA) is given as “less Arc-positive cells”. Further, the “total number of activated neurons in the mpIC” value (denatonium benzoate compared to OVA) was “no significant difference”.

B1: ovalbumin (protein, UniProt P01012 2-386, looked up)
Ovalbumin: GSIGAASMEFCFDVFKELKVHHANENIFYCPIAIMSALAMVYLGAKDSTRTQINKVVRFDKLPGFGDSIEAQCGTSVNVHSSLRDILNQITKPNDVYSFSLASRLYAEERYPILPEYLQCVKELYRGGLEPINFQTAADQARELINSWVESQTNGIIRNVLQPSSVDSQTAMVLVNAIVFKGLWEKAFKDEDTQAMPFRVTEQESKPVQMMYQIGLFRVASMASEKMKILELPFASGTMSMLVLLPDEVSGLEQLESIINFEKLTEWTSSNVMEERKIKVYLPRMKMEEKYNLTSVLMAMGITDVFSSSANLSGISSAESLKISQAVHAAHAEINEAGREVVGSAEAGVDAASVSEEFRADHPFLFCIKHIATNAVLFFGRCVSP
notes: orally consumed novel innocuous food antigen
Take B1: the “response of neurons in the mpIC (Arc expression) to oral consumption” value is given as “respond to oral consumption of OVA”. The “Arc expression in the AI layer of the mpIC” value (OVA-consuming mice compared to mice exposed to denatonium benzoate) is listed as “lower expression”.
